# From patent US20240336608A1, “IL4I1 INHIBITORS AND METHODS OF USE” (Merck Sharp & Dohme LLC, priority 2023, published 2024)
# Target: T1, recombinant IL4I1 (Homo sapiens, UniProt Q96RQ9)
# T1 construct: purchased R&D Systems 5684-AO-020
# T1 sequence (Q96RQ9 22-567): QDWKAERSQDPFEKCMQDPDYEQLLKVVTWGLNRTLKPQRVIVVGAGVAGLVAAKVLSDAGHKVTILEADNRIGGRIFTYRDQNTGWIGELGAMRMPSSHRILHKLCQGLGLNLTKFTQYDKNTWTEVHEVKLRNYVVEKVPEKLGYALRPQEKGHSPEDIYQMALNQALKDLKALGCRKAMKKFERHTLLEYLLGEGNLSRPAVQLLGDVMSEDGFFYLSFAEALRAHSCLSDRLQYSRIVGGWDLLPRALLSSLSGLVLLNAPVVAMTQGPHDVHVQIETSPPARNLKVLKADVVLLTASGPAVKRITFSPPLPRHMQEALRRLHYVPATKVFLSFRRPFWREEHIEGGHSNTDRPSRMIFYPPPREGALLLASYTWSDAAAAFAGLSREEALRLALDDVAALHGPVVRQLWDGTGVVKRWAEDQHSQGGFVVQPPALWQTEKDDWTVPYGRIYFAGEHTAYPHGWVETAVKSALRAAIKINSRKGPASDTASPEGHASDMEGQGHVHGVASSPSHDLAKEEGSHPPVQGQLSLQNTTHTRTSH
# Assay: IL4I1 Enzymatic Assay (Amplex Red/HRP coupled detection of H2O2, fluorescence)
# Assay type: biochemical
# Settings: 1 nM recombinant IL4I1; four-hour pre-incubation with compound; 1 mM each Phe, Tyr, Trp; ten-point titration
# Procedure, shortened: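 H2O2 output was coupled to resorufin fluorescence (ex 544/em 590) via 0.05 mM Amplex Red and 1 U/mL HRP. Substrate: Phe, Tyr, Trp at 1 mM each; enzyme 1 nM, 4 h compound pre-incubation, 120 min reaction, pH 7.0 Hepes. EC50 by nonlinear four-parameter regression, 1:3 ten-point titration.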
row,EC50 [nM],SMILES
1,26,"CC(C)(C#N)n1cc(C(=O)NCc2nnc(-c3ccccc3)s2)nn1 [Example 313, 1-(2-cyanopropan-2-yl)-N-((5-phenyl-1,3,4-thiadiazol-2-yl)methyl)-1H-1,2,3-triazole-4-carboxamide]"
2,12,"Cc1ccc(-n2cc(C(=O)NCc3cc(-c4ccncc4)no3)nn2)c(C)n1 [Example 314, 1-(2,6-dimethylpyridin-3-yl)-N-((3-(pyridin-4-yl)isoxazol-5-yl)methyl)-1H-1,2,3-triazole-4-carboxamide]"
3,86,"Cc1ncccc1-n1cc(C(=O)NCc2nnc(-c3ccccc3)s2)nn1 [Example 315, 1-(2-methylpyridin-3-yl)-N-((5-phenyl-1,3,4-thiadiazol-2-yl)methyl)-1H-1,2,3-triazole-4-carboxamide]"
4,241,"O=C(NCc1nnc(-c2ccccc2)s1)c1cn(-c2cncnc2)nn1 [Example 316, N-((5-phenyl-1,3,4-thiadiazol-2-yl)methyl)-1-(pyrimidin-5-yl)-1H-1,2,3-triazole-4-carboxamide]"
5,21,"CC(C)(O)c1cc(C(=O)NCc2nnc(-c3ccccc3)s2)no1 [Example 317, 5-(2-hydroxypropan-2-yl)-N-((5-phenyl-1,3,4-thiadiazol-2-yl)methyl)isoxazole-3-carboxamide]"
6,27,"CC(C)(C(N)=O)n1cc(C(=O)NCc2nnc(-c3ccncc3)s2)nn1 [Example 320, 1-(1-amino-2-methyl-1-oxopropan-2-yl)-N-((5-(pyridin-4-yl)-1,3,4-thiadiazol-2-yl)methyl)-1H-1,2,3-triazole-4-carboxamide]"
7,51,"CNC(=O)C(C)(C)n1cc(C(=O)NCc2nnc(-c3ccncc3)s2)nn1 [Example 321, 1-(2-methyl-1-(methylamino)-1-oxopropan-2-yl)-N-((5-(pyridin-4-yl)-1,3,4-thiadiazol-2-yl)methyl)-1H-1,2,3-triazole-4-carboxamide]"
8,26,"CNC(=O)C(C)(C)n1cc(C(=O)NCc2nnc(-c3ccccc3)s2)nn1 [Example 322, 1-(2-methyl-1-(methylamino)-1-oxopropan-2-yl)-N-((5-phenyl-1,3,4-thiadiazol-2-yl)methyl)-1H-1,2,3-triazole-4-carboxamide]"
9,205,"CC(C)(O)Cn1cc(C(=O)NCc2nnc(-c3ccccc3)s2)nn1 [Example 323, 1-(2-hydroxy-2-methylpropyl)-N-((5-phenyl-1,3,4-thiadiazol-2-yl)methyl)-1H-1,2,3-triazole-4-carboxamide]"
10,274,"Cc1ccc(-n2cc(C(=O)NCc3nnc(C4CCCCC4)s3)nn2)c(C)n1 [Example 324, N-((5-cyclohexyl-1,3,4-thiadiazol-2-yl)methyl)-1-(2,6-dimethylpyridin-3-yl)-1H-1,2,3-triazole-4-carboxamide]"
11,274,"Cc1ccc(-n2cc(C(=O)NCc3nnc(C4CCCC4)s3)nn2)c(C)n1 [Example 325, N-((5-cyclopentyl-1,3,4-thiadiazol-2-yl)methyl)-1-(2,6-dimethylpyridin-3-yl)-1H-1,2,3-triazole-4-carboxamide]"
12,263,"Cc1ccc(-n2cc(C(=O)NCc3ccc(C4CCCCC4)nn3)nn2)c(C)n1 [Example 326, N-((6-cyclohexylpyridazin-3-yl)methyl)-1-(2,6-dimethylpyridin-3-yl)-1H-1,2,3-triazole-4-carboxamide]"
13,306,"CC(C)(O)c1cc(C(=O)NCc2nnc(-c3ccccc3)s2)on1 [Example 328, 3-(2-hydroxypropan-2-yl)-N-((5-phenyl-1,3,4-thiadiazol-2-yl)methyl)isoxazole-5-carboxamide]"
14,382,"O=C(NCc1nnc(-c2ccccc2)s1)c1cn(CC(F)(F)C(=O)O)nn1 [Example 331, 2,2-difluoro-3-(4-(((5-phenyl-1,3,4-thiadiazol-2-yl)methyl)carbamoyl)-1H-1,2,3-triazol-1-yl)propanoic acid]"
15,8,"NC(=O)C(F)(F)Cn1cc(C(=O)NCc2nnc(-c3ccccc3)s2)nn1 [Example 332, 1-(3-amino-2,2-difluoro-3-oxopropyl)-N-((5-phenyl-1,3,4-thiadiazol-2-yl)methyl)-1H-1,2,3-triazole-4-carboxamide]"
16,6,"Cc1nc(C(N)=O)ccc1-n1cc(C(=O)NCc2nnc(-c3ccccc3)s2)nn1 [Example 333, 6-methyl-5-(4-(((5-phenyl-1,3,4-thiadiazol-2-yl)methyl)carbamoyl)-1H-1,2,3-triazol-1-yl)picolinamide]"
17,446,"Cc1nc(C(C)(C)O)ccc1-n1cc(C(=O)NCc2nnc(-c3ccccc3)s2)nn1 [Example 334, 1-(6-(2-hydroxypropan-2-yl)-2-methylpyridin-3-yl)-N-((5-phenyl-1,3,4-thiadiazol-2-yl)methyl)-1H-1,2,3-triazole-4-carboxamide]"
18,10,"Cc1nc(C#N)ccc1-n1cc(C(=O)NCc2nnc(-c3ccccc3)s2)nn1 [Example 335, 1-(6-cyano-2-methylpyridin-3-yl)-N-((5-phenyl-1,3,4-thiadiazol-2-yl)methyl)-1H-1,2,3-triazole-4-carboxamide]"
19,9,"CCc1ccc(-n2cc(C(=O)NCc3nnc(-c4ccccc4)s3)nn2)c(C)n1 [Example 336, 1-(6-ethyl-2-methylpyridin-3-yl)-N-((5-phenyl-1,3,4-thiadiazol-2-yl)methyl)-1H-1,2,3-triazole-4-carboxamide]"
20,53,"Cc1ccc(-n2cc(C(=O)NCc3nnc(-c4ccccc4)s3)nn2)c(C#N)n1 [Example 337, 1-(2-cyano-6-methylpyridin-3-yl)-N-((5-phenyl-1,3,4-thiadiazol-2-yl)methyl)-1H-1,2,3-triazole-4-carboxamide]"
21,24,"Cc1ccc(-n2cc(C(=O)NCc3nnc(-c4ccccc4)s3)nn2)c(C(C)(C)O)n1 [Example 338, 1-(2-(2-hydroxypropan-2-yl)-6-methylpyridin-3-yl)-N-((5-phenyl-1,3,4-thiadiazol-2-yl)methyl)-1H-1,2,3-triazole-4-carboxamide]"
22,174,"Cc1ccc(-n2cc(C(=O)NCc3nnc(-c4ccccc4)s3)nn2)c(=O)[nH]1 [Example 339, 1-(6-methyl-2-oxo-1,2-dihydropyridin-3-yl)-N-((5-phenyl-1,3,4-thiadiazol-2-yl)methyl)-1H-1,2,3-triazole-4-carboxamide]"
23,36,"Cc1ccc(-n2cc(C(=O)NCc3nnc(-c4ccccc4)s3)nn2)c(N)n1 [Example 340, 1-(2-amino-6-methylpyridin-3-yl)-N-((5-phenyl-1,3,4-thiadiazol-2-yl)methyl)-1H-1,2,3-triazole-4-carboxamide]"
24,271,"Cc1nc(S(C)(=O)=O)ccc1-n1cc(C(=O)NCc2nnc(-c3ccccc3)s2)nn1 [Example 341, 1-(2-methyl-6-(methylsulfonyl)pyridin-3-yl)-N-((5-phenyl-1,3,4-thiadiazol-2-yl)methyl)-1H-1,2,3-triazole-4-carboxamide]"
25,5,"Cc1nc(N)ccc1-n1cc(C(=O)NCc2nnc(-c3ccccc3)s2)nn1 [Example 342, 1-(6-amino-2-methylpyridin-3-yl)-N-((5-phenyl-1,3,4-thiadiazol-2-yl)methyl)-1H-1,2,3-triazole-4-carboxamide]"
26,92,"O=C(NCc1nnc(-c2ccccc2)s1)c1cn(CC2(CO)CC2)nn1 [Example 343, 1-((1-(hydroxymethyl)cyclopropyl)methyl)-N-((5-phenyl-1,3,4-thiadiazol-2-yl)methyl)-1H-1,2,3-triazole-4-carboxamide]"
27,108,"Cc1n[nH]c(C)c1-n1cc(C(=O)NCc2nnc(-c3ccccc3)s2)nn1 [Example 346, 1-(3,5-dimethyl-1H-pyrazol-4-yl)-N-((5-phenyl-1,3,4-thiadiazol-2-yl)methyl)-1H-1,2,3-triazole-4-carboxamide]"
28,7,"O=C(NCc1nnc(-c2ccncc2)s1)c1cn(CC(F)F)nn1 [Example 347, 1-(2,2-difluoroethyl)-N-((5-(pyridin-4-yl)-1,3,4-thiadiazol-2-yl)methyl)-1H-1,2,3-triazole-4-carboxamide]"
